Reference: PMC12638514, “Identification of Novel β‐Lactam Derivatives as Proteasome Inhibitors for Antitumor Therapy” (Archiv Der Pharmazie, 2025)

Legend:
[1] = system: rabbit 20S proteasome β5 (CT‐L); parameters: method as in PMID 24452398, PMID 21946808; settings: Figure 2; cited from earlier work
[2] = system: MV‐4‐11 cells; test: Cell proliferation inhibition assay (CCK8), MV‐4‐11; assay type: cell-based; settings: Homo sapiens, MV4-11, 72 h, mean ± SD
Protocol: (§1) MV‐4‐11 cells (1 × 10^4 cells/well), RPMI‐8226 cells (8 × 10^3 cells/well), Molt4 cells (2 × 10^3 cells/well), RS4;11 cells (2 × 10^4 cells/well), and PBMC cells (2 × 10^4 cells/well) were seeded in 96‐well plates (Corning, 3599). Cells were treated with either 0.2% DMSO or fivefold dilutions of compounds from 10 mM stock solutions in DMSO (0.2% final concentration of DMSO) for 72 h. 10 μL of CCK8 reagent was added to each well, and the plates were incubated at 37°C for 3 h. Absorbance was measured at 450 nm and 650 nm using a Spectra Max Molecular Devices microplate reader. The final data were calibrated by OD450 nm‐OD650 nm.

[3] = system: RPMI‐8226 cells; test: Cell proliferation inhibition assay (CCK8), RPMI‐8226; assay type: cell-based; settings: Homo sapiens, 72 h, mean ± SD
Protocol: as §1

[4] = system: Molt4 cells; test: Cell proliferation inhibition assay (CCK8), Molt4; assay type: cell-based; settings: Homo sapiens, MOLT-4, 72 h, mean ± SD
Protocol: as §1

[5] = system: RS4;11 cells; test: Cell proliferation inhibition assay (CCK8), RS4;11; assay type: cell-based, human; settings: mean ± SD
Protocol: as §1

[6] = system: normal peripheral blood mononuclear cells (PBMC); test: Cell proliferation inhibition assay (CCK8), PBMC; assay type: cell-based; settings: 72 h, mean ± SD, read-out: IC50 PBMC‐3Day
Protocol: as §1

[7] = target: T1, human constitutive proteasome, β5 subunit (CT‐L) (Homo sapiens, UniProt P20618+P28074); test: In vitro 20S proteasome chymotrypsin‐like (CT‐L, β5) inhibition assay; assay type: biochemical; settings: CT‐L activity, substrate Suc‐LLVY‐AMC; mean ± SD of three independent experiments
T1 construct: gift of Dr. Jiang-ping Wu (Notre-Dame Hospital, Montreal)
Protocol: (§2) The human constitutive proteasome was generously provided by Dr. Jiang‐ping Wu (Notre‐Dame Hospital, Montreal, QC, Canada). […] The proteasome activity assay was performed in a total volume of 50 μL, with all samples diluted in Tris–HCl buffer (100 mM Tris–HCl, pH 8.0). […] 10 μL purified human proteasome (25 μg/mL) was added to 1 μL of each compound; after incubation for 15 min, the mixture was combined with 39 μL of the fluorogenic substrate. […] The IC50 values were calculated using the software GraphPad Prism4, employing the “sigmoidal dose–response (variable slope)” equation for curve fitting.

[8] = target: proteasome β1 subunit (C‐L) (Homo sapiens, UniProt P28072+Q99436); test: Proteasome caspase‐like (C‐L, β1) inhibition; assay type: biochemical; settings: C‐L activity; mean ± SD of three independent experiments
Protocol: as §2

[9] = target: proteasome β2 subunit (T‐L) (Homo sapiens, UniProt P49720+Q99436); test: Proteasome trypsin‐like (T‐L, β2) inhibition; assay type: biochemical; settings: T‐L activity; mean ± SD of three independent experiments
Protocol: as §2

[10] = system: RS4;11 cells; test: Apoptosis assay by flow cytometry; assay type: cell-based, human; settings: 1, 2 and 4 μM, 12 h
Protocol: (§3) Apoptosis was assessed using an Annexin V‐APC/7AAD apoptosis detection kit (GA1023‐KGA1026, Keygentec, Nanjing, China), followed by flow cytometry analysis. Briefly, cells were treated with the indicated drug concentration and durations or left untreated, then washed twice with PBS, stained with Annexin V‐APC/7AAD, and analyzed using flow cytometry (CytoFLEX flow cytometer, Beckman Coulter Inc.). RS4;11 cells were exposed to various concentrations of the compound or DMSO. Protein lysates were prepared using 4 × Laemmli sample buffer (161073, BIORAD, Richmond, USA). Protein samples were separated by SDS‐polyacrylamide gel electrophoresis (BIO‐RAD, Richmond, USA) and subsequently transferred to nitrocellulose (NC) membranes. Following a 90‐min blocking step with 5% skim milk at room temperature, the NC membranes were incubated with the primary antibody at 4 °C overnight, followed by three washes with TBST for 10 min each. The NC membranes were then incubated with secondary antibodies for 1.5 h at room temperature. Signals were detected by ECL (KF8001&KF8003, Affinity, China) using the BIO‐RAD ChemiDoc Touch Imaging System.

[11] = system: RS4;11 cells; test: Western blot of apoptosis‐related and ubiquitinated proteins; assay type: cell-based, human
Protocol: as §3

IC50 [4]	IC50 ([5]; Homo sapiens, RS4-11, 72 h)	IC50 [7]	IC50 [8]	IC50 [9]	SMILES	IC50 [2]	IC50 [3]	further results
					CC[C@H](C)[C@@H]1C(=O)O[C@H]1C(=O)NCCC[C@H](NC(=O)[C@H](C)N)C(=O)O [Belactosin C]			IC50 [1]: 0.21 µM
0.0133 ± 0.00247 µM	0.00587 ± 0.00093 µM				CC(C)C[C@H](NC(=O)[C@H](Cc1ccccc1)NC(=O)c1cnccn1)B(O)O [Bortezomib, reference compound]	0.00515 ± 0.00109 µM	0.00364 ± 0.00052 µM	IC50 [6]: 0.00157 ± 0.00019 µM
		> 10 µM			CC(C)(C)CNC(=O)C[C@H](NC(=O)c1cnccn1)C(=O)N[C@@H](CCc1ccccc1)C(=O)N[C@@H]1CN(c2ccc(F)cc2)C1=O [Compound 68]			
> 10 µM	1.52 ± 0.67 µM	0.288 ± 0.0572 µM	> 10 µM	> 10 µM	CC(C)(C)CNC(=O)C[C@H](NC(=O)c1cnccn1)C(=O)N[C@@H](CCc1ccccc1)C(=O)N[C@H]1CN(c2ccc(F)cc2)C1=O [Compound 69]	> 20 µM	10.2 ± 0.76 µM	
		> 10 µM			C[C@H](NC(=O)c1cccnc1)C(=O)N[C@@H](CCc1ccccc1)C(=O)N[C@@H]1CN(c2ccc(F)cc2)C1=O [Compound 70]			
		> 10 µM			C[C@H](NC(=O)c1cnccn1)C(=O)N[C@@H](CCc1ccccc1)C(=O)N[C@@H]1CN(c2ccc(F)cc2)C1=O [Compound 71]			
		> 10 µM			CC(C)[C@H](NC(=O)c1cccnc1)C(=O)N[C@@H](CCc1ccccc1)C(=O)N[C@@H]1CN(c2ccc(F)cc2)C1=O [Compound 72]			
		> 10 µM			O=C(N[C@@H](CCc1ccccc1)C(=O)N[C@@H](CCc1ccccc1)C(=O)N[C@@H]1CN(c2ccc(F)cc2)C1=O)c1cccnc1 [Compound 73]			
		> 10 µM			O=C(N[C@@H](Cc1ccccc1)C(=O)N[C@@H](CCc1ccccc1)C(=O)N[C@@H]1CN(c2ccc(F)cc2)C1=O)c1cccnc1 [Compound 74]			
		> 10 µM			CSCC[C@H](NC(=O)c1cccnc1)C(=O)N[C@@H](CCc1ccccc1)C(=O)N[C@@H]1CN(c2ccc(F)cc2)C1=O [Compound 75]			
> 10 µM	0.86 ± 0.24 µM	0.072 ± 0.0149 µM	> 10 µM	> 10 µM	Cc1ccc(N2C[C@@H](NC(=O)[C@H](CCc3ccccc3)NC(=O)[C@H](CC(=O)NCC(C)(C)C)NC(=O)c3cccnc3)C2=O)cc1 [Compound 76, (S)‐N ^4‐Neopentyl‐2‐(nicotinamido)‐N ^1‐[(S)‐1‐oxo‐1‐{[(R)‐2‐oxo‐1‐(p‐tolyl)azetidin‐3‐yl]amino}‐4‐phenylbutan‐2‐yl]succinamide]	> 20 µM	8.05 ± 1.17 µM	
		0.132 ± 0.0148 µM	> 10 µM	> 10 µM	CN(C)c1ccc(N2C[C@@H](NC(=O)[C@H](CCc3ccccc3)NC(=O)[C@H](CC(=O)NCC(C)(C)C)NC(=O)c3cccnc3)C2=O)cc1 [Compound 77, (S)‐N ^1‐[(S)‐1‐{[(R)‐1‐[4‐(Dimethylamino)phenyl]‐2‐oxoazetidin‐3‐yl]amino}‐1‐oxo‐4‐phenylbutan‐2‐yl]‐N ^4‐neopentyl‐2‐(nicotinamido)succinamide]			
3.78 ± 0.27 µM	< 1 µM	0.142 ± 0.0301 µM	> 10 µM	> 10 µM	COc1ccc(N2CC(NC(=O)C(CCc3ccccc3)NC(=O)C(CC(=O)NCC(C)(C)C)NC(=O)c3cccnc3)C2=O)cc1 [Compound 78, (S)‐N ^1‐[(S)‐1‐{[(R)‐1‐(4‐Methoxyphenyl)‐2‐oxoazetidin‐3‐yl]amino}‐1‐oxo‐4‐phenylbutan‐2‐yl]‐N ^4‐neopentyl‐2‐(nicotinamido)succinimide]	2.78 ± 0.41 µM	2.34 ± 0.34 µM	IC50 ([5]; 72 h): 0.5 ± 0.13 µM; IC50 [6]: 17.2 ± 1.93 µM; induction of apoptosis in RS4;11 cells [10]: triggered cell apoptosis in a dose‐dependent manner; activation and cleavage of caspase‐3 and PARP ([11]; RS4;11, 1, 2 and 4 μM, 8 h, western blot): detectable across all samples; accumulation of poly‐ubiquitinated proteins ([11]; RS4;11, western blot): significant accumulation of poly‐ubiquitinated proteins
2.37 ± 0.23 µM	0.99 ± 0.17 µM	0.282 ± 0.0336 µM	> 10 µM	> 10 µM	CC(C)(C)CNC(=O)C[C@H](NC(=O)c1cccnc1)C(=O)N[C@@H](CCc1ccccc1)C(=O)N[C@@H]1CN(c2ccc(C(F)(F)F)cc2)C1=O [Compound 79, (S)‐N ^4‐Neopentyl‐2‐(nicotinamido)‐N ^1‐[(S)‐1‐oxo‐1‐{[(R)‐2‐oxo‐1‐[4‐(trifluoromethyl)phenyl]azetidin‐3‐yl]amino}‐4‐phenylbutan‐2‐yl]succinamide]	2.75 ± 0.46 µM	3.44 ± 0.44 µM	
